According to patent US9724337B2, “AG-205 for the treatment of breast cancer” (University of Kentucky Research Foundation, priority 2009, dated 2017):

Experiments:
[1] = biological target: T1, Pgrmc1 (Homo sapiens, UniProt O00264); experiment: Western blot of Pgrmc1 levels in MDA-MB-468 cells; type: cell-based
Procedure: (§1) Immunological techniques. Cells were extracted in RIPA buffer (50 mM Tris, pH 8.0, 1% Nonidet P-40, 150 mM NaCl, 0.5% sodium deoxycholate, 0.1% sodium dodecyl sulfate, 1 mM phenylmethylsulfonyl fluoride, 10 μg/ml of aprotinin, leupeptin and pepstatin) for standard western blotting. The antibodies used in the study were anti-caveolin-1 (N-20, Santa Cruz Biologicals, # sc-894), anti-EGFR (1005, Santa Cruz, # sc-03), anti-ku70 (A-9, Santa Cruz # sc-5309), anti-Met (C-12, Santa Cruz # sc-10), anti-PARP (H-250, Santa Cruz # sc-7150), anti-phosphotyrosine (P-Tyr-100, Cell Signaling), anti-Pgrmc1 (Novus Biologics) and anti-tubulin (Neomarkers). Some western blots for Pgrmc1 were performed with a polyclonal antibody called anti-PGR-UK1 which was raised in rabbits to an internal 10 amino acid peptide.

[2] = system: EGFR; experiment: Western blot of EGFR levels in A549 cells; type: cell-based, human
Procedure: Panel A is a diagram indicating the positions of the siRNA molecules targeting Pgrmc1. Exons 1, 2 and 3 are indicated by “ex”. MDA-MB-468 cells were transfected with a control siRNA (siCON, lanes 1 and 3) or two separate siRNAs targeting Pgrmc1 (siPGR and siPGR2, lanes 2 and 4, respectively). In panels B-E and H-L, protein levels were analyzed by western blot for EGFR (B), phospho-tyrosine (C), Pgrmc1 (D) and ku70 (E), as a control for protein loading. Panels F—H show western blot analyses for (F) IGF-1R, (G) c-Kit and (H) tfR. In panels I and J, transcript levels were analyzed by reverse transcriptase-PCR for EGFR (I) and Pgrmc1 (J). The top band indicates the gene of interest, while actin primers were included in the same reaction as a control for cDNA loading. […] In panels K-L, MDA-MB-468 cells were treated with increasing doses of the Pgrmc1 ligand AG-205. Protein expression was analyzed by western blot for EGFR (K) and ku70 (L). Cells were treated with 0 (lanes 1), 2 (lanes 2), 10 (lanes 3) or 50 (lanes 4) μM AG-205 for 24 hours in serum-free medium. In panels M-N, A549 cells were treated with the same doses and analyzed for EGFR (M) and ku70 (N). […] Expression analyses were repeated at least in duplicate throughout.
(§2) Immunological techniques. […]

[3] = system: focal adhesion kinase; experiment: Western blot of focal adhesion kinase in A549 cells; type: cell-based, human
Procedure: as §1

[4] = system: SK-Br-3 cells; experiment: Growth inhibition of SK-Br-3 cells; type: cell-based; settings: modest EGFR, extremely high HER2/neu
Procedure: Tissue culture. MDA-MB-468 cells were a kind gift from Dr. Rina Plattner of the University of Kentucky and were maintained in medium consisting of Dulbecco's Modified Eagle Medium containing 10% serum supreme (Fisher) and antibiotics. Cells were grown at 37° C. in 5% CO2 in air. A549 and HCC827 lung cancer cells, as well as SK-Br-3 breast cancer cells were obtained from the ATCC (American Type Culture Collection) and were grown under the same conditions. The H1650 lung cancer cell line was a kind gift from Dr. Heinz Kohler of the University of Kentucky. The Pgrmc1 ligand AG-205 was purchased from Timtec, Inc. The EGFR inhibitor AG1478 was from Biomol, Inc. and was used at a concentration range of 0.8-40 μM.

[5] = system: EGFR; experiment: EGFR immunofluorescence localization in MDA-MB-468 cells; type: cell-based, human; settings: AG-205-treated cells after 24 hours, 20 μM
Procedure: To test this model, EGFR was stained by immunofluorescence 24 hours after treatment with 20 μM AG-205 in MDA-MB-468 cells. In cells treated with the vehicle control, EGFR localized to the cell membrane. In contrast, EGFR localized to both the cell membrane and an intracellular ring which corresponds to the perinuclear region of the cell. Also, Pgrmc1 may control the uptake from the membrane to the perinuclear region.
Immunofluorescence for EGFR was performed as described previously (Crudden et al., (2005) Tumour Biol 26:142-6). Cells were grown on chamber slides, washed and fixed with 3.7% formaldehyde. The cells were then permeabilized with 0.1% Triton X-100 in phosphate-buffered saline, blocked with 10% serum and incubated, in turn, with anti-EGFR 1005 and a Texas red-labeled anti-rabbit secondary antibody.

[6] = biological target: T2, AtMAPR2 (Arabidopsis thaliana, UniProt Q9SK39); settings: in silico screen then binding assay, 2005; cited from earlier work
T2 sequence (Q9SK39 1-100): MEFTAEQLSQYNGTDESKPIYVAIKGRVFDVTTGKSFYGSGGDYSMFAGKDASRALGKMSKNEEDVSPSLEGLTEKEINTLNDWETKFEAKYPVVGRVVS

[7] = biological target: T1, Pgrmc1; experiment: Western blot of Pgrmc1 in A549 cells; type: cell-based; design: endogenous in cells; host or cells: A549 cells; settings: A549 cells, 2, 10 or 50 μM for 24 hours
Procedure: (A) Graph of triplicate FACS analysis. […] (B) Protein expression was analyzed by western blot for Pgrmc1 (top) and ku70 (bottom). Cells were treated with 0 (lanes 1), 2 (lanes 2), 10 (lanes 3) or 50 (lanes 4) μM AG-205 for 24 hours. […] (C-D) The panels show western blots of phosphorylated ERK1/2 (upper panels) and total ERK1/2 (lower panels) The lanes in panel C are A549/con (lane 1), A549/RNAi (lane 2), A549/LacZ (lane 3) and A549/PGR-hbd cells (lane 4) following 48 hours serum starvation. The cells infected with adenovirus were similar to those described in FIG. 3, panels C and D. In panel D, A549 cells were treated with vehicle (lane 1) or 20 μM AG-205 (lane 2) for 24 hours in serum-free media. (E) A549/con (solid line) or A549/RNAi (dashed line) cells were treated with increasing doses of AG-205 for 72 hours and viability was measured by counting, and “% viability” refers to the cell number relative to the untreated control. (F) Cells expressing LacZ (solid line) or the Pgrmc1-hbd heme binding-deficient mutant (dashed line), were treated with increasing doses of AG-205. […] Percent viability was determined by cell counting, and “% viability” refers to the cell number relative to the untreated control. For each experiment, the results are representative of experiments performed at least in duplicate.
as §2

T1 sequence (O00264 whole entry): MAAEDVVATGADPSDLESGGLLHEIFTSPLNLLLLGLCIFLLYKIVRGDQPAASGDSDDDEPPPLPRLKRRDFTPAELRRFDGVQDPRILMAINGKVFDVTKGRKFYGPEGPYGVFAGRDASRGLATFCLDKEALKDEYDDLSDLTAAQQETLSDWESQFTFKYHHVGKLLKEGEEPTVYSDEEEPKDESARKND

Which results are given for `Cc1ccc2c(c1)[C@H]1CN(C)CC[C@H]1N2C(=O)CSc1nnnn1-c1ccc(Cl)cc1` [AG-205]?
increase in Pgrmc1 levels ([1]; 12 μM dose): 4.8 fold; Pgrmc1 levels ([1]; doses of 25 and 50 μM): nearly undetectable levels; dose with optimal EGFR de-stabilizing activity [2]: 20 to 50 µM; EGFR stability ([2]; increasing doses): de-stabilized EGFR in a dose-dependent manner; stability of focal adhesion kinase [3]: little effect; sensitivity to growth inhibition [4]: relatively insensitive; EGFR localization [5]: EGFR localized to the perinuclear region of the cell; binding to At Pgrmc1 (AtMAPR2) [6]: bind to At Pgrmc1; Pgrmc1 expression [7]: increases Pgrmc1 expression
